In ChEMBL document CHEMBL3244102, “Piperazinylpyrazines with central serotoninmimetic activity” (J Med Chem, 1978):
In brackets after ≈: the same amount, converted by molar mass. Activity calls are given as the source filed them. The calls are words filed in the database; no cut-off is given here.

Legend:
Mus musculus [1] = experiment: Central serotoninmimetic activity in CF mouse assessed as induction of head twitches at 6 mg/kg, ip after 60 mins; type: functional, organism-based; design: dose 6 mg/kg
Mus musculus [2] = experiment: Central serotoninmimetic activity in CF mouse assessed as induction of head twitches at 30 mg/kg, ip after 60 mins; type: functional, organism-based; design: dose 30 mg/kg
[3] = Peripheral serotoninmimetic activity in Charles River rat uterus assessed as uterine contraction measured as tension developed at 10 ug/ml; type: ADME, tissue-based
Mus musculus [4] = experiment: Central serotoninmimetic activity in CF mouse assessed as induction of head twitches at 60 mg/kg, ip after 30 mins in presence of xylamidine; type: functional, organism-based; design: dose 60 mg/kg
[5] = Peripheral serotoninmimetic activity in Charles River rat uterus assessed as uterine contraction measured as tension developed at 0.1 ug/ml; type: ADME, tissue-based
[6] = Peripheral serotoninmimetic activity in Charles River rat uterus assessed as uterine contraction measured as tension developed at 10 ug/ml in presence of hydroxindasol; type: ADME, tissue-based
[7] = Peripheral serotoninmimetic activity in Charles River rat uterus assessed as uterine contraction; type: ADME, tissue-based
[8] = Peripheral serotoninmimetic activity in Charles River rat uterus assessed as uterine contraction measured as tension developed at 10 ug/ml relative to methacholine; type: ADME, tissue-based
Mus musculus [9] = experiment: Central serotoninmimetic activity in CF mouse assessed as induction of head twitches at 10 mg/kg, ip after 30 to 60 mins in presence of cyproheptadine; type: functional, organism-based; design: dose 10 mg/kg
Mus musculus [10] = experiment: Central serotoninmimetic activity in CF mouse assessed as induction of head twitches at 10 mg/kg, ip after 30 to 60 mins in presence of methergoline; type: functional, organism-based; design: dose 10 mg/kg
[11] = Peripheral serotoninmimetic activity in Charles River rat uterus assessed as uterine contraction measured as tension developed at 0.5 ug/ml; type: ADME, tissue-based
[12] = Peripheral serotoninmimetic activity in Charles River rat uterus assessed as uterine contraction measured as tension developed at 1 ug/ml; type: ADME, tissue-based
[13] = Peripheral serotoninmimetic activity in Charles River rat uterus assessed as uterine contraction measured as tension developed at 20 ug/ml; type: ADME, tissue-based
[14] = Peripheral serotoninmimetic activity in Charles River rat uterus assessed as uterine contraction measured as tension developed at 1 ug/ml relative to methacholine; type: ADME, tissue-based
[15] = Peripheral serotoninmimetic activity in Charles River rat uterus assessed as uterine contraction measured as tension developed at 0.5 ug/ml relative to methacholine; type: ADME, tissue-based
[16] = Ratio of serotonin EC50 to compound EC50 for peripheral serotoninmimetic activity in Charles River rat uterus; type: ADME, tissue-based
[17] = Peripheral serotoninmimetic activity in Charles River rat uterus assessed as uterine contraction measured as tension developed at 10 ug/ml in presence of methylsergide; type: ADME, tissue-based
Mus musculus [18] = experiment: Central serotoninmimetic activity in CF mouse assessed as induction of head twitches at 10 mg/kg, ip after 30 mins in presence of xylamidine; type: functional, organism-based; design: dose 10 mg/kg
[19] = Peripheral serotoninmimetic activity in Charles River rat uterus assessed as uterine contraction measured as tension developed at 5 ug/ml; type: ADME, tissue-based
[20] = Peripheral serotoninmimetic activity in Charles River rat uterus assessed as uterine contraction measured as tension developed at 5 ug/ml relative to methacholine; type: ADME, tissue-based
[21] = Peripheral serotoninmimetic activity in Charles River rat uterus assessed as uterine contraction measured as tension developed at 0.001 ug/ml; type: ADME, tissue-based
[22] = Peripheral serotoninmimetic activity in Charles River rat uterus assessed as uterine contraction measured as tension developed at 0.005 ug/ml; type: ADME, tissue-based
[23] = Peripheral serotoninmimetic activity in Charles River rat uterus assessed as uterine contraction measured as tension developed at 0.001 ug/ml relative to methacholine; type: ADME, tissue-based
[24] = Peripheral serotoninmimetic activity in Charles River rat uterus assessed as uterine contraction measured as tension developed at 0.01 ug/ml; type: ADME, tissue-based
[25] = Peripheral serotoninmimetic activity in Charles River rat uterus assessed as uterine contraction measured as tension developed at 0.01 ug/ml in presence of hydroxindasol; type: ADME, tissue-based
[26] = Peripheral serotoninmimetic activity in Charles River rat uterus assessed as uterine contraction measured as tension developed at 0.005 ug/ml relative to methacholine; type: ADME, tissue-based
[27] = Peripheral serotoninmimetic activity in Charles River rat uterus assessed as uterine contraction measured as tension developed at 0.01 ug/ml in presence of methylsergide; type: ADME, tissue-based
[28] = Peripheral serotoninmimetic activity in Charles River rat uterus assessed as uterine contraction measured as tension developed at 0.01 ug/ml relative to methacholine; type: ADME, tissue-based
[29] = Peripheral serotoninmimetic activity in Charles River rat uterus assessed as uterine contraction measured as tension developed at 0.05 ug/ml; type: ADME, tissue-based
[30] = Peripheral serotoninmimetic activity in Charles River rat uterus assessed as uterine contraction measured as tension developed at 0.00075 ug/ml; type: ADME, tissue-based
[31] = Peripheral serotoninmimetic activity in Charles River rat uterus assessed as uterine contraction measured as tension developed at 0.00050 ug/ml relative to methacholine; type: ADME, tissue-based
[32] = Peripheral serotoninmimetic activity in Charles River rat uterus assessed as uterine contraction measured as tension developed at 0.00050 ug/ml; type: ADME, tissue-based
[33] = Peripheral serotoninmimetic activity in Charles River rat uterus assessed as uterine contraction measured as tension developed at 0.00075 ug/ml relative to methacholine; type: ADME, tissue-based

Structure (SMILES): c1ccc2nc(N3CCNCC3)ccc2c1
- Activity (Mus musculus [1]): inactive
- Activity (Mus musculus [2]): inactive

Structure (SMILES): Clc1nccnc1N1CCNCC1
- Activity (Mus musculus [1]): inactive
- Activity (Mus musculus [2]): inactive

Structure (SMILES): CN(C)c1cncc(N2CCNCC2)n1
- Activity (Mus musculus [1]): inactive
- Activity (Mus musculus [2]): inactive

Structure (SMILES): c1cnc(N2CCNCC2)cn1
- Activity (Mus musculus [1]): inactive

Structure (SMILES): Clc1cnc(N2CCNCC2)cn1
- Activity (Mus musculus [1]): inactive

Structure (SMILES): Cc1nccnc1N1CCNCC1
- Activity (Mus musculus [1]): inactive
- Activity (Mus musculus [2]): inactive

Structure (SMILES): c1ccc(-c2cncc(N3CCNCC3)n2)cc1
- Activity (Mus musculus [2]): inactive

Structure (SMILES): Cl.Clc1cncc(N2CCNCC2)n1
- Activity [3]: 2.28 g
- Activity (Mus musculus [4]): inactive
- Activity [5]: 0 g
- Activity [6]: Non-toxic
- EC50 [7]: 2.411 µg/mL
- Emax [8]: 86%
- Activity (Mus musculus [9]): inactive
- Activity (Mus musculus [10]): inactive
- Activity [11]: 0.27 g
- Activity [12]: 0.4 g
- Activity [13]: 2.42 g
- Activity (Mus musculus [1]): Active
- Emax [14]: 15%
- Emax [15]: 10%
- Ratio EC50 [16]: 300
- Activity [17]: Non-toxic
- Activity (Mus musculus [18]): Active
- Activity (Mus musculus [2]): Active
- Activity [19]: 2.12 g
- Emax [20]: 80%

Structure (SMILES): CC(=O)OC(C)C[N+](C)(C)C (stereo unspecified) [METHACHOLINE]
- Activity [12]: 2.65 g

Structure (SMILES): Clc1cncc(N2CCN(c3cncc(Cl)n3)CC2)n1
- Activity (Mus musculus [1]): inactive

Structure (SMILES): c1ccc(-c2cnc(N3CCNCC3)cn2)cc1
- Activity (Mus musculus [1]): inactive
- Activity (Mus musculus [2]): inactive

Structure (SMILES): O=C1CN(c2cncc(Cl)n2)CCN1
- Activity (Mus musculus [1]): inactive
- Activity (Mus musculus [2]): inactive

Structure (SMILES): CS(=O)(=O)c1cncc(N2CCNCC2)n1
- Activity (Mus musculus [1]): inactive

Structure (SMILES): NCCc1c[nH]c2ccc(O)cc12 [SEROTONIN]
- Activity [21]: 2.32 g
- Activity [22]: 2.67 g
- Emax [23]: 70%
- Activity [5]: 3.2 g
- Activity [24]: 3.08 g
- Activity [25]: Non-toxic
- Emax [26]: 80%
- EC50 [7]: 0.0083 µg/mL (≈ 0.0471 µM)
- Activity [27]: Non-toxic
- Emax [28]: 92%
- Activity [29]: 3.18 g
- Activity [30]: 1.23 g
- Emax [31]: 7%
- Activity [32]: 0.22 g
- Emax [33]: 37%

Structure (SMILES): COC(=O)c1nc(Cl)c(N2CCNCC2)nc1N
- Activity (Mus musculus [2]): inactive

Structure (SMILES): Cc1cncc(N2CCNCC2)n1
- Activity (Mus musculus [1]): Active
- Activity (Mus musculus [2]): Active

Structure (SMILES): N#Cc1cncc(N2CCNCC2)n1
- Activity (Mus musculus [1]): inactive
- Activity (Mus musculus [2]): inactive

Structure (SMILES): Cc1cnc(C)c(N2CCNCC2)n1
- Activity (Mus musculus [1]): inactive

Structure (SMILES): CN(C)CCCN1CCN(c2cncc(Cl)n2)CC1
- Activity (Mus musculus [1]): inactive
- Activity (Mus musculus [2]): inactive
